Results published in patent US20240239786A1, “COMPOSITIONS AND METHODS FOR THE TREATMENT AND PREVENTION OF CANCER” (Yale University, priority 2021, published 2024).

How the values were obtained:
[1] = Chemical stability of DB4: potency after pre-incubation in cell-free medium (EdU readout); format: physicochemical; details: pre-incubated in cell-free medium at 37° C. up to 72 hr; PEO4 cells
Experimental: DB4 remained mostly active and intact after 72 hr in the culture medium. The dose response curve of DB4 in DNA synthesis inhibition in PEO4 cells was generated as determined by EdU flow cytometric analysis. […] PEO4 cells were treated with these media for 24 hr. The level of DNA synthesis inhibition was determined to interpolate and calculate % DB4 remaining compared with the control at 0 hr. FIG. 5B depicts representative results for remaining DB4 after DB4 (MW=496.1) was added to the culture medium at 50 μM for 0 hr, 24 hr, 48 hr, or 72 hr at 37° C. FIG. 5C depicts representative mass spectrum obtained from mass spectrometry that was run to detect the level of the 496.13 ion at 0 hr. FIG. 5D depicts representative mass spectrum obtained from mass spectrometry that was run to detect the level of the 496.13 ion at 72 hr.
To ensure that DB4 remained chemically stable, the time course study was performed by determining the potency of DB4 following a pre-incubation in the cell-free medium at 37° C. for up to 72 hr. Cells were treated for 24 hr with the medium containing pre-incubated DB4 and DNA synthesis was determined by the EdU incorporation assay.

[2] = system: HR repair; test: HR reporter assay in SKOV3-DR-GFP cells; format: cell-based; details: Homo sapiens, SK-OV-3, I-SceI-induced DSB, 48 hr, read-out: IC50 for inhibiting HR repair
Description: Cells were transfected with the ISceI-expressing plasmid and then treated various concentrations of DB4 for 48 hr. Cells were harvested, stained with 7-AAD, and analyzed by flow cytometry for GFP-positive cells indicative of HR repair activity. […] Cells were transfected with the ISceI-expressing plasmid and treated with various concentrations of DB4. Cells were harvested, stained with 7-AAD, and stained, and analyzed by flow cytometry for GFP-positive cells indicative of NHEJ activity. Data are means±SD (N=3). *, p<0.05; **, p<0.01, compared with the 0 μM control of ISceI-transected cells. […] Cells were also scored for nuclei containing equal or more than 10 distinct Rad51 foci to determine the percentage of cells positive for Rad51 foci. […] Protein was assessed by western blot analysis for the levels of γH2AX, p-H1, cyclin A2, p-CDK1/2, and HSC70. […] The band density of γH2AX indicative of DSBs was quantified by densitometry. […]
The ability of DB4 to inhibit endonuclease-induced DSB repair of reporter genes in SKOV3 cells was evaluated. […]
SKOV3-DR-GFP cells were established as described previously (Lin Z P et al., 2014, Molecular Cancer Res, 12:381-393). […] Cells were then trypsinized, stained with 7-AAD, and analyzed for the percentage of GFP-positive and […] cells by flow cytometry using an LSR II flow cytometer (BD Biosciences) and FlowJo software (Tree Star; Ashland, OR). […]

[3] = system: MDA-MB231 breast cancer cells; test: Clonogenic assay, MDA-MB231; format: cell-based; details: DB4 at 3 μM, 14 days
Experimental: Cells were plated for 24 hr, pre-treated with DB4 for 1 hr, and then treated with various concentrations of olaparib for 14 days. Colonies were stained and determined for clonogenic survival.
To further substantiate the effectiveness of DB4 and mitigate the issue of off-target effects with a higher concentration range of drugs used in the MTS cytotoxicity assay, clonogenic assays were carried out to determine the long-term survival of cells in response to treatments.
The assay was conducted as described previously (Lin Z P et al., 2014, Molecular Cancer Res, 12:381-393). Cells were plated at various densities in 6-well plates in triplicate. After 24 hr of incubation, cells were treated continuously with various concentrations of olaparib, DB4, or both drugs in combination. After 12-14 days, colonies were fixed/stained with crystal violet solution and counted to determine the percentage of survival using a GelDoc imaging system with QuantityOne software (Bio-Rad, Hercules, CA).

With `C=CCn1c(SCc2cccc(Cl)c2)nnc1C1CCN(Cc2nc3ccccc3s2)CC1` [DB4, 2-[(4-{4-allyl-5-[(3-chlorobenzyl)thio]-4H-1,2,4-triazol-3-yl}-1-piperidinyl)methyl]-1,3-benzothiazole] the “activity to inhibit DNA synthesis after pre-incubation” value [1] was “more than 82%”, the IC50 [2] was 5.4 µM and the “clonogenic survival in the presence of olaparib” value [3] was “effectively reduced the clonogenic survival”.
